In patent publication US7491707B1, “Synthetic lipid-a-analogs and uses thereof” (Biomira, Inc., priority 1999, dated 2009):
Entries after “also recorded” stand apart in the source; their conditions may differ.

How the values were obtained:
Interferon-gamma (IFN-γ) = Interferon-gamma (IFN-γ) production in cell culture supernatants by ELISA, lymphocytes of mice immunized with adjuvanted MUC1 liposomal vaccine; format: in vivo, C57-Black mice; details: for Interferon-gamma (IFN-γ, pg/ml): s.c. liposomal vaccine 40 μg BP1-148 + 20 μg Lipid-A analog per dose, nine days after injection; for interferon-gamma production: in words, liposomal vaccine formulations in mice, FIG. 31-FIG. 33
Procedure: (§1) Typically, the liposomal formulation was composed of 400 μg of MUC1-based lipopeptide BP1-148, H2N-[…](Pal)G-OH, 200 μg of Lipid-A analog, 6.94 mg of cholesterol, 1.46 mg of dimyristoyl phosphatidylglycerol ([…]) and 11.62 mg of dipalmitoyl phosphatidylcholine (DPPC) per 1 ml of saline (0.9% NaCl solution).
(§2) The liposomal constructs were formulated by first dissolving the phospholipids, cholesterol and Lipid A analog in tert-butanol at about 53° C. Lipopeptide and water (5%, v/v) were then added to the tert-butanol solution. The resulting clear 95% tert-butanol solution was injected into about 4 volumes of rapidly stirred water at about 50° C., using a glass syringe with an 18-gauge needle. The small unilamellar vesicles (SUV) formed in this process were cooled, sterilized by filtration through a 0.22 μm membrane filter, filled into vials and lyophilized. The dry powder was re-hydrated with sterile saline before injection, resulting in the formation of multilamellar large vesicles (MLV). The liposomes formed are used to immunize mice.
(§3) Groups of C57-Black mice were immunized subcutaneously with the liposomal vaccine containing 40 μg of MUC1-based lipopeptide BP1-148 (FIG. 34), which has the peptide sequence of H2N-[…](Pal) G-OH, and 20 μg of Lipid-A analog per dose. Nine days after vaccine injection mice were sacrificed and lymphocytes were taken from the draining lymph nodes (local response) or from the spleens (systemic response) to determine the immune response in each group. The lymphocytes taken from immunized mice were incubated in in vitro cultures in the presence of MUC1-based boosting antigen BP1-151, which has the peptide sequence H2N-[…]-OH.
Interferon-gamma (IFN-γ) levels were determined in the cell culture supernatants using enzyme-linked immunoabsorbent assay (ELISA). 96-Well plates were coated with 50 μl of catcher Mabs in 50 μl of R4.6AZ at 37° C. for 30 min. The plates were then washed and incubated with test samples for 45 min. After two washes the second biotinylated antibody, XMG1.2 was added. After washing, peroxidase-conjugated streptavidin was added and incubated again for 30 min. Finally, 100 μl of horseradish peroxidase (HRPO) substrate solution was added. The optical density was measured with a Thermomax ELISA reader at 405 nm wavelength in kinetic mode for 10 min. The interferon-gamma (IFN-γ) levels corresponding to various Lipid-A analogs are shown in Table 1-Table 3 and FIG. 31-FIG. 33.

[1] = Solubility of Lipid-A analogs for incorporation into liposomes; format: physicochemical; details: in words; given as cause of poor incorporation into liposomes
T-cell = T-cell proliferation (3H thymidine incorporation) of lymph node lymphocytes from mice immunized with MUC1-based liposomal vaccine adjuvanted with Lipid-A analog; format: in vivo, C57-Black mice; details: for T-cell-Proliferation (CPM): s.c. liposomal vaccine 40 μg BP1-148 + 20 μg Lipid-A analog per dose, nine days after injection, boosting antigen BP1-151; for T-cell blastogenesis: in words, liposomal vaccine formulations in mice, FIG. 31-FIG. 33
Procedure: as §1, §2, §3
T-cell proliferation was evaluated using a standard ^3H thymidine incorporation assay. Briefly, nylon wool passed inguinal lymph node lymphocytes from each mouse were added to a culture containing 106 native mitomycin C treated syngeneic splenocytes, which serves as antigen presenting cells (APCs). To each well 20 μg of MUC1-based boosting peptide BP1-151, H2N-[…]-OH (single letter amino acid code, Table 8), was added for positive control; and cultures containing no antigen or peptide BP1-72, which has the peptide sequence H2N-[…]-OH, were used as negative control. The culture was incubated for 72 h in a total volume of 250 μl well, followed by adding 1 μCi of ^3H-thymidine in a volume of 50 μl. The plates were incubated for an additional 18-20 h. Cells were harvested and [^3H]dTh incorporation was measured by liquid scintillation counter. T-cell proliferation results corresponding to various liposomal vaccines adjuvanted, with different Lipid-A analogs are summarized in Tables 1-Table 3 and FIG. 31-FIG. 33.

[2] = tested on: immune response to MUC1-based lipopeptide BP1-148; assay: Adjuvanticity of Lipid-A analogs in liposomal vaccine with MUC1 lipopeptide BP1-148 (T-cell blastogenesis and IFN-γ production); format: in vivo, mice; details: in words; for adjuvant activity compared to Natural Lipid-A (Lipid-A preparation of bacterial origin): liposomal formulations with BP1-148 in mice, FIGS. 31-33
Description: Liposome formulations have been used to evaluate the adjuvant properties of various synthetic Lipid-A structures and the immune responses to a synthetic lipopeptide antigen BP-148, H2N-[…](Pal)G-OH (FIG. 34), a modified 25-amino-acid sequence derived from tumor-associated MUC1 mucin. The commercially available Lipid-A product, which is currently under clinical evaluation as an adjuvant for vaccine programs, was used for comparison. The natural Lipid-A product, purchased from AVANTI, contained a mixture of Lipid-A analogs extracted from Salmonella bacterial cell wall and is designated as Natural Lipid-A in this invention.
Thus, the liposomal formulations containing the synthetic lipopeptide antigen, BP1-148, and Lipid-A analogs 33, 48, 54, 58, 70, 77, 86, 94, 102, 104 or Natural Lipid-A, were used to immunize mice to measure their immune response in terms of T-cell blastogenesis and interferon-gamma (IFN-γ) production. The compounds were tested in three groups at different time and their preliminary results are shown separately in FIGS. 31-33. As the variations are attributed to different factors such as animal groups and experimental factors, the data from different groups will not be compared.
as §3

C57-Black mice = assay: Lethal toxicity of Lipid-A analogs injected i.p. followed by Actinomycin D; format: in vivo; details: for No. Survived/No. Tested (+24 h): Actinomycin D +
Procedure: Synthetic Lipid-A analog 86 and the Natural Lipid-A (see Example 95 for more detail) were tested for their lethal toxicity. Test methods and results are summarized below (Table 4) • a) Preparation of Lipid-A analog solution: 1 mg of Lipid-A analog was dissolved in 1 ml of 20% DMSO and diluted with saline to obtain 50 μg, 10 μg and 2 μg doses in 0.5 ml. • b) Preparation of Actinomycin D: 5 mg of Actinomycin D was dissolved in 1 ml of ethanol and diluted with saline to obtain a dose at 550 μg/kg in 0.5 ml. • c) Procedure: Various doses of Lipid-A analogs or solvent as control were injected intraperitoneally (i.p.) into C57-Black mice. Twenty minutes later all groups of mice were injected with 500 μl of Actinomycin D. Mice were then observed for mortality or any other symptoms of toxicity.

| SMILES | Interferon-gamma (IFN-γ, pg/ml) (Interferon-gamma (IFN-γ); Table 2, second test group) | interferon-gamma production (Interferon-gamma (IFN-γ)) | solubility [1] | T-cell-Proliferation (CPM) (T-cell; Table 2, second test group) | T-cell blastogenesis (T-cell) | Interferon-gamma (IFN-γ, pg/ml) (Interferon-gamma (IFN-γ); Table 1, first test group) | T-cell-Proliferation (CPM) (T-cell; Table 1, first test group) | Interferon-gamma (IFN-γ, pg/ml) (Interferon-gamma (IFN-γ); Table 3, third test group) | T-cell-Proliferation (CPM) (T-cell; Table 3, third test group) | adjuvant activity compared to Natural Lipid-A (Lipid-A preparation of bacterial origin) [2] | activity compared to the other synthetic Lipid-A analogs ([2]; second group (FIG. 32)) | survival of the study (C57-Black mice; all three doses (50 μg, 10 μg, 2 μg) i.p., experiment terminated 4 days later) | No. Survived/No. Tested (+24 h) (C57-Black mice; dose 2/500 μg/μl i.p.) | No. Survived/No. Tested (+24 h) (C57-Black mice; dose 10/500 μg/μl i.p.) | No. Survived/No. Tested (+24 h) (C57-Black mice; dose 50/500 μg/μl i.p.) | toxicity compared to Natural Lipid-A product from Salmonella (C57-Black mice; in words, in vivo, C57-Black mice, Actinomycin D) |
| --- | --- | --- | --- | --- | --- | --- | --- | --- | --- | --- | --- | --- | --- | --- | --- | --- |
| CCCCCCCCCCCCCC(=O)N[C@@H](CC(=O)N[C@H]1[C@H](OC[C@H]2OC(O)[C@H](NC(=O)C[C@@H](CCCCCCCCCCC)OC(=O)CCCCCCCCCCCCC)[C@@H](OC(=O)C[C@H](O)CCCCCCCCCCC)[C@@H]2O)O[C@H](CO)[C@@H](OP(=O)(O)O)[C@@H]1OC(=O)C[C@@H](CCCCCCCCCCC)OC(=O)CCCCCCCCCCCCC)C(=O)NCCCCCCCCC (stereo partly drawn) [Compound 77, 2-Deoxy-6-O-{2-deoxy-2-[(3S)-3-tetradecanamido-4-nonylamino-4-oxo-butanamido]-4-O-phosphono-3-O-[(3R)-3-tetradecanoyloxytetradecanoyl]-β-D-glucopyranosyl}-3-O-[(3R)-3-hydroxytetradecanoyl]-2-[(3R)-3-tetradecanoyloxytetradecanamido]-α/β-D-glucopyranose] | 0 pg/mL | inactive | poor solubility | 2565 CPM | inactive |  |  |  |  |  |  |  |  |  |  |  |
| CCCCCCCCCCCCCC(=O)N[C@@H](CC(=O)N[C@H]1[C@H](OC[C@H]2OC(O)[C@H](NC(=O)C[C@@H](CCCCCCCCCCC)OC(=O)CCCCCCCCCCCCC)[C@@H](O)[C@@H]2O)O[C@H](CO)[C@@H](OP(=O)(O)O)[C@@H]1OC(=O)C[C@@H](CCCCCCCCCCC)OC(=O)CCCCCCCCCCCCC)C(=O)NCCCCCCCCC (stereo partly drawn) [Compound 58, 2-Deoxy-6-O-{2-deoxy-2-[(3S)-3-tetradecanamido-4-nonylamino-4-oxo-butanamido]-4-O-phosphono-3-O-[(3R)-3-tetradecanoyloxytetradecanoyl]-β-D-glucopyranosyl}-2-[(3R)-3-tetradecanoyloxytetradecanamido]-α/β-D-glucopyranose] |  | inactive | poor solubility |  | inactive | 0 pg/mL | 686 CPM |  |  |  |  |  |  |  |  |  |
| CCCCCCCCCCCCCC(=O)O[C@H](CCCCCCCCCCC)CC(=O)N[C@H]1[C@H](OC[C@H]2OC(O)[C@H](NC(=O)C[C@@H](CCCCCCCCCCC)OC(=O)CCCCCCCCCCCCC)[C@@H](OC(=O)C[C@H](O)CCCCCCCCCCC)[C@@H]2O)O[C@H](CO)[C@@H](OP(=O)(O)O)[C@@H]1OC(=O)C[C@@H](CCCCCCCCCCC)OC(=O)CCCCCCCCCCCCC (stereo partly drawn) [Compound 86, 2-Deoxy-6-O-{2-deoxy-4-O-phosphono-2-[(3R)-3-tetradecanoyloxytetradecanamido]-3-O-[(3R)-3-tetradecanoyloxytetradecanoyl]-β-D-glucopyranosyl}-3-O-[(3R)-3-hydroxytetradecanoyl]-2-[(3R)-3-tetradecanoyloxytetradecanamido]-α/β-D-glucopyranose] | 36461 pg/mL | high levels of interferon-gamma |  | 52382 CPM | significant T-cell blastogenesis |  |  | 17697 pg/mL | 15486 CPM | as effective | slightly more active | survived the study | 3/3 | 3/3 | 3/3 | much less toxic; also recorded: much lower |
| CCCCCCCCCCCCCCCC(=O)O[C@H](CCCCCCCCCCC)CC(=O)N[C@H]1C(O)O[C@H](CO[C@@H]2O[C@H](CO)[C@@H](OP(=O)(O)O)[C@H](OC(=O)C[C@@H](CCCCCCCCCCC)OC(=O)CCCCCCCCCCCCC)[C@H]2NC(=O)C[C@@H](CCCCCCCCCCC)OC(=O)CCCCCCCCCCC)[C@@H](O)[C@@H]1O (stereo partly drawn) [Compound 48, 2-Deoxy-6-O-{2-deoxy-2-[(3R)-3-dodecanoyloxytetradecanamido]-4-O-phosphono-3-O-[(3R)-3-tetradecanoyloxytetradecanoyl]-β-D-glucopyranosyl}-2-[(3R)-3-hexadecanoyloxytetradecanamido]-α/β-D-glucopyranose] | 18261 pg/mL | high levels of interferon-gamma |  | 28149 CPM | significant T-cell blastogenesis | 2430 pg/mL | 14112 CPM |  |  | as effective |  |  |  |  |  |  |
| CCCCCCCCCCCCO[C@H](CCCCCCCCCCC)CC(=O)O[C@H](CCCCCCCCCCC)CC(=O)N[C@H]1C(O)O[C@H](CO[C@@H]2O[C@H](CO)[C@@H](OP(=O)(O)O)[C@H](OC(=O)C[C@@H](CCCCCCCCCCC)OCCCCCCCCCCCC)[C@H]2NC(=O)C[C@H](O)CCCCCCCCCCC)[C@@H](O)[C@@H]1O (stereo partly drawn) [Compound 104, 2-Deoxy-6-O-{2-deoxy-4-O-phosphono-2-[(3R)-3-hydroxytetradecanamido]-3-O-[(3R)-3-dodecyloxytetradecanoyl]-β-D-glucopyranosyl}-2-{(3R)-3-[(3R)-3-dodecyloxytetradecanoyloxy]-tetradecanamido}-α/β-D-glucopyranose] |  | high levels of interferon-gamma |  |  | significant T-cell blastogenesis |  |  | 14669 pg/mL | 12635 CPM | similar; also recorded: as effective |  |  |  |  |  |  |
